Source: patent US20190046481A1, “TRANSDERMAL FORMULATIONS FOR DELIVERY OF PROPIONIC AND ACETIC ACID NSAIDS, AND THEIR USE IN THE TREATMENT OF NSAID-RESPONSIVE DISEASES AND CONDITIONS” (DELIVRA INC., priority 2015, published 2019)
Where two headings read alike, the source gives them in different places.

Experiments:
in vivo [1] = conditions: dog
Text: (§1) 12 dogs with radiographic evidence of osteoarthritis (OA) were utilized to compare the concentration of ibuprofen in both blood and synovial fluid following transdermal delivery of ibuprofen formulated in base formulation and oral delivery in capsules. The 12 dogs were randomly divided into two groups of six subjects; one group received the oral positive treatment control and the other group received the transdermal treatment. The treatment cycle consisted of six days twice daily followed by a period of seven days devoid of treatment. Blood and synovial fluid samples (from both stifles and shoulders) were collected on the last (sixth) day of drug application and on the last (seventh) day of the washout period.
(§2) Test article: 1.5% (w/w) ibuprofen in base formulation (4); ˜1 g gel per shoulder joint twice daily (i.e. 15 mg ibuprofen per shoulder joint twice daily). Control article: base formulation; ˜1 g gel per shoulder joint twice daily. Positive Control: 30 mg ibuprofen in capsule PO twice daily.
(§3) Whole blood and synovial fluid samples were collected from the dogs 60 mins post treatment on the 7th day, and additional samples were collected after a 7 day washout. Baseline synovial fluid was collected from untreated canine subjects. Synovial fluid was collected under sedation (medetomidine (0.01 mg/kg) and butorphenol (0.1 mg/kg) IV). The fluid was collected by arthrocentesis into the joint following surgical preparation of the area. Synovial fluid was collected from stifle or shoulder joints.

[2] = for Serum drug concentration: dog, in vivo
Text: as §1, §2, §3

in vivo [3] = conditions: for concentration at 7 days / Synovial Fluid drug concentration: dog, in vivo
Text: Baseline synovial fluid was collected from untreated canine subjects. […] Synovial fluid was collected from stifle or shoulder joints.
Error bars depicted standard error of the mean.

[4] = Naproxen quantification in canine sera (LC-MS/MS); format: in vivo, Beagle dogs; conditions: both sexes, Beagle, dog, serum, oral, mean+/−SEM
Method: A 1 mg/mL stock solution of d3-naproxen was prepared in dimethyl sulfoxide. […] A solution of 200 ng/mL of d3-naproxen was prepared by adding 4 μL of 50 μg/mL solution of d3-naproxen to 996 μL methanol/water (70:30) (stock solution B).
Isocratic chromatographic separation was performed on a Zorbax Eclipse XDB-C18 column (150×4.6 mm I.D., 5 μm particle size, Agilent, Santa Clara, Calif., USA, SN USKH095544) with a XDB-C18 guard column (12.5×4.6 mm I.D., μm particle size, Agilent, Santa Clara, Calif., USA, SN USLE034730) using a mobile phase of acetonitrile/0.02 M NH4OAc (pH=4.00) (70:30) at a flow rate of 0.500 mL/min for 6 min. […] There was a post time of 0.10 min. The column temperature was 40° C. and the autosampler temperature was maintained at 4° C. The sample injection volume was 10 μL. A 4000 Q trap from AB Sciex Instruments equipped with an electrospray ionization (ES1) was used in the negative ion mode with multiple reaction monitoring (MRM) for the quantitative analysis. Nitrogen was used as the collision gas and the curtain gas. […] Analytical data were acquired and quantification processing was performed by using Analyst software.
Six aged Beagle dogs (>6 years) of both sexes with quantified radiographic evidence of osteoarthritis were used for the study. […]

[5] = system: aged Beagle dogs with radiographic evidence of osteoarthritis; assay: Modified canine brief pain inventory questionnaire in aged dogs with osteoarthritis; format: in vivo; conditions: test day 5; for cumulative pain score compared to baseline: about 1.5 hours after administration
Method: This study used a blinded parallel group design with a total of eighteen (18) aged Beagle dogs greater than six years of age with radiographic evidence of osteoarthritis. The dogs were randomized to three groups of six subjects balanced on baseline pain levels determined using a modified canine brief pain inventory questionnaire in which a technician evaluated levels of pain and functional impairment in a standardized obstacle test over two baseline days. […] Dogs were tested on the modified canine brief pain inventory questionnaire daily over 7 days approximately 1.5 hours following administration of their respective treatments. Over the subsequent five test days, the same treatment doses were administered twice daily (i.e., doubling the daily dose), except that a loading dose was administered in the morning of the first day, which consisted of twice the daily dose level used initially (i.e., triple initial dose on the first day). The technicians assessing pain and function with the questionnaire were blinded to treatment conditions. Twice daily observations were conducted for the duration of the study.
Transdermal and oral naproxen were evaluated compared to a negative control as described in the Study Design. […] Questionnaire testing occurred approximately 1.5 hours following the morning dose administration of the test compounds. The two most affected joints of each subject were shaved prior to the first day of drug administration in all treatment groups.
Subjects were assessed on a pain questionnaire once daily on test days. […] Specifically, the ability of each dog to walk, trot, gallop, rear, jump over a low obstacle, climb and descend stairs, jump down from a perch and general activity was evaluated in addition to a subjective evaluation of pain during evaluation of each function. […]
The data consisted of whole number scored for 13 questions assessing measures of both pain (0-2) and functional impairment (0-4), as well as an overall pain and function question (0-4). A cumulative pain and functional impairment score was calculated from all […] for both the pain and functional impairment measures on a daily basis as applicable. […] Subsequently, difference from the baseline scores were calculated for the fifth test day at each dose and subjected to a similar RMANOVA analysis. […]
The dogs were randomized to three groups of six subjects based on mean baseline pain levels determined using a modified canine brief pain inventory questionnaire over two baseline days. […] Pain was evaluated using the pain questionnaire, which was administered approximately 1.5 hours following administration of their respective treatments. […] Data from the fifth treatment day at each dose compared to baseline was statistically evaluated.

[6] = Dose 2 (high dose, twice daily)

Compound | concentration at 7 days (in vivo [1]) | concentration at 7 days (in vivo [1]; po) | Serum drug concentration ([2]; 60 min) | Serum drug concentration ([2]; 7 days) | Serum drug concentration ([2]; po, 60 min) | Serum drug concentration ([2]; po, 7 days) | reduction of circulating drug by a one week washout period ([2]; serum, oral or transdermal) | concentration at 7 days (in vivo [3]) | Synovial Fluid drug concentration (in vivo [3]; 60 min) | Synovial Fluid drug concentration (in vivo [3]; 7 days) | concentration at 7 days (in vivo [3]; po) | Synovial Fluid drug concentration (in vivo [3]; po, 60 min) | Synovial Fluid drug concentration (in vivo [3]; po, 7 days) | reduction of drug by a one week washout period (in vivo [3]; synovial fluid, oral or transdermal) | concentration at 60 min ([4]; capsule PO once daily for seven days, 60 minutes post administration) | concentration at 7 days ([4]; seven day washout) | cumulative pain score difference from mean baseline compared to negative control ([5]; Dose 1 (low dose, once daily)) | cumulative pain score compared to baseline ([5]; Dose 1 (low dose, once daily)) | cumulative pain score difference from mean baseline compared to negative control [5, 6] | cumulative pain score compared to baseline [5, 6]
CC(C)Cc1ccc(C(C)C(=O)O)cc1 (centres unmarked) [Ibuprofen] | 58.5 ng/mL | 8.5 ng/mL | 2,904 (±1,212) ng/mL | 59 (±38)^□ ng/mL | 15,420 (±3,450) ng/mL | 9 (±4)^□ ng/mL | > 95% | 58.5 ng/mL | 1,711 (±828) ng/mL | 31 (±21)^□ ng/mL | 8.5 ng/mL | 2,065 (±1,070) ng/mL | 5 (±3)^□ ng/mL | > 95% | – | – | – | – | – | –
COc1ccc2cc([C@H](C)C(=O)O)ccc2c1 [oral naproxen, Naproxen] | – | – | – | – | – | – | – | – | – | – | – | – | – | – | 102 µg/mL | 16200 ng/mL | reduced pain at only the low dose | significant decrease from baseline | reduced pain at only the low dose | reduced measures of pain at only the low dose
